Measurements as given in patent US12281178B2, “Tuning of pore-forming peptides for increasing pore size, membrane affinity, stability, and antimicrobial activity” (ADOLPHE MERKLE INSTITUTE, UNIVERSITY OF FRIBOURG, priority 2018, dated 2025).
Entries after “also recorded” stand apart in the source; their conditions may differ.

Tests used:
[1] = Planar lipid bilayer single channel recordings of CtxA and flexible-template CtxA-DNA assemblies; type: biochemical
Description: The lipid composition for the bilayers consisted of POPC, DOPE and POPS with a 7:3:1 (w/w) ratio (PC/PE/PS) or for the origami structures in diphytanoyl phosphatidylcholine (DiPhyPC). We dissolved the resulting lipid mixture in pentane (total lipid concentration: 10 mg/mL). The buffered electrolyte solution consisted of 1M NaCl, 10 mM HEPES, pH 7.4 or 3M CsCl, 10 mM HEPES, pH 7.4 in 30% glycerol.
We designed Teflon chambers with one big compartment (containing a maximum volume of 1.5 mL) and one small compartment (containing a maximum volume of 200 μL). We pretreated Teflon films (Eastern Scientific LLC, Rockville, MD) with apertures of 50 μm by pipetting 1 μL of pre-treatment solution—hexadecane in hexane 2.5% (v/v)—onto both sides of the aperture of the Teflon film. We then mounted the Teflon film in a Teflon chamber using high-vacuum grease (Dow Corning Corporation), separating the two compartments of the Teflon chamber. The only connection between the compartments was the aperture in the Teflon film over which we formed virtually solvent-free planar lipid bilayers using the technique described by Montal and Mueller^10. Briefly, we added electrolyte solution to both compartments (1.2 mL in the bigger compartment and 160 μL for the smaller one) and spread 1-2 μL of lipid solution onto the surface of the buffered electrolyte solution. After the solvent evaporated, a lipid monolayer (Langmuir film) formed at the air-water interface. […] We then thinned the membrane by lowering and raising the electrolyte solution in one compartment, until we measured a capacitance of 60±10 pF. To monitor capacitance, we applied a triangular voltage and the capacitance was either calculated by the amplifier or determined visually using the manual capacitance compensation of the amplifier. Prior to adding the peptide, we checked the stability of the bilayer (absence of leak currents, expected noise level) by applying transmembrane voltages of up to 200 mV for 5 min at both polarities. We used one of two different amplifiers, an EPC7 (HEKA Instruments Inc., Holliston, MA, USA) or a BC-535 (Warner Instruments Hamden, CT, USA)) and connected both compartments to the amplifier through two Ag/AgCl pellet electrodes (Warner Instruments Hamden, CT, USA). We placed the Teflon chambers inside Faraday cages, on BM4 vibration isolation platforms (Minus K® Technology, Inc., Inglewood, CA, USA). We carried out all experiments at room temperature (22±1° C.) and tested all setups with different model cells to confirm proper functionality of the amplifiers and function generators. We sampled currents at 50 kHz and low-pass 10 kHz. We analysed data using OriginLab (OriginLab Corporation, Northampton, MA, USA) and pClamp (Molecular Devices, Sunnyvale, CA, USA) software.
We performed the experiments with the peptide-DNA hybrid in two different ways: (i) we added all components sequentially—ssDNA-CtxA first, then the template strands, one after the other—or (ii) we mixed the ssDNA-CtxA with the spacer strand (with or without cholesterol) and the template strand in a DNA LoBind tube (Eppendorf Tubes, Hamburg, Germany) and let them react overnight at room temperature (pre-incubation experiments). We also performed the pre-incubation experiments with and without HPLC-SEC purification. In the case of unpurified assemblies, we added the DNA-modified peptides and the spacer strand stoichiometrically and then added the n-mer template (with n equal to 4, 6 or 8) at a ratio of 1 mole for n moles of DNA-modified peptide. When purifying the assemblies, we added the peptide-DNA monomers in excess compared to the template strand (at least 5 n moles of peptide for 1 mol of n-mer template) and removed the excess monomers using HPLC-SEC purification (Agilent SEC 3 column, 300 mm, […], 4.6 mm internal diameter). We then stored the collected assemblies at +4° C. for later use and add the spacer strand in excess prior to the experiment. […]

A549 cells = experiment: Cytotoxic activity: change in confluence of A549 cells over time (IncuCyte); type: cell-based
Description: We grew lung epithelial A549 cells in RPMI 1640 medium containing 25 mM HEPES, 1% L-glutamine, 10% fetal bovine serum and added 1% penicillin-streptomycin for prevention of bacterial contamination of cell cultures. We seeded the cells in 96-well plates (TPP, Trasadingen, Switzerland) with 10′000 cells per well, in a total volume of 50 uL per well. We placed the plates in the IncuCyte Zoom imaging system (Essen Bioscience, Ann Arbor, MI, USA) placed inside of an incubator set to 37° C. and 5% CO2 and monitored the growth of the cell by monitoring the change in confluence over time. We seeded the cells and left them to adhere and replicate for 20 h before adding the templated CtxA-DNA assemblies or native CtxA as control. We then measured the cell confluence every 2 h. To estimate the effect of the different peptide assemblies on the change in confluence over time, we fitted the observed confluence levels after peptide addition linearly.

[2] = applied potential difference of +180 mV

Substance: Ceratotoxin A (SIGSALKKALPVAKKIGKIALPIAKAALPVAAGLVG) [Native CtxA]
- Minimum concentration to display significant / frequent pore formation [1]: 10 to 20 nM
- Pore lifetime [1]: hundreds of milliseconds; also recorded: less than one second
- Conductance, open state O1 (3-mer) [1, 2]: 50 ± 25 pS
- Conductance, open state O2 (4-mer) [1, 2]: 510 ± 30 pS
- Conductance, open state O3 (5-mer) [1, 2]: 1645 ± 200 pS
- Conductance, open state O4 (6-mer) [1, 2]: 3125 ± 305 pS
- Conductance, open state O5 (7-mer) [1, 2]: 4630 ± — pS
- Conductance, open state O6 (8-mer) [1, 2]: 6600 ± — pS
- Pore-forming activity ([1]; total peptide concentration of 5 nM, +180 mV): little to no pore formation
- Concentration necessary to reduce cell viability (A549 cells): 50 to 100 µM
- Total CtxA concentration sufficient to completely stop replication of the cells (A549 cells): 100 µM
